Series [1] can be described thus: toxicity (LD50) p.o. in mice. The note with it: mouse, in vivo, po. As to the method:
(§1) The MAO inhibiting activity of the compounds of formula I of the invention can be determined using standard methods. Thus, the compounds of formula I to be tested were administered p.o. to rats. One hour thereafter the animals were killed and the MAO inhibiting activity in the liver homogenates was measured according to the method described in Biochem. Pharmacol. 12 (1963) 1439-1441. The activity thus determined of representative compounds of the present invention and their toxicity can be seen from the ED50 values (μmol/kg.p.o. in rats) and LD50 values (mg/kg, p.o. in mice) listed in the Table which follows: […]

Series [2] deals with monoamine oxidase (MAO). Put plainly: MAO inhibiting activity in liver homogenates of rats after p.o. administration. The note with it: animals killed one hour after administration, MAO measured in liver homogenates, 60 min. Type of series: in vivo. As to the method:
as §1

Series [3] is described as follows: toxicity (LD50) p.o. in rats. The note with it: rat, in vivo, po, after 10 days.

In series [1], `O=C(NCCN1CCOCC1)c1ccc(C(F)(F)F)cc1` [α,α,α-trifluoro-N-(2-morpholinoethyl)-p-toluamide] displayed an LD50 of 1000 to 2000 mg/kg. Besides, the “ED50 (MAO inhibiting activity)” value in series [2] turned out to be 16 µmol/kg.
Turning to `O=C(NCCN1CCOCC1)c1ccc(Cl)cc1` [p-chloro-N-(2-morpholinoethyl)-benzamide], the “ED50 (MAO inhibiting activity)” value in series [2] came out at 5 µmol/kg. For the same compound, the LD50 at 240 h in series [3] worked out at 707 ± 55 mg/kg.
In series [1], `O=C(NCCN1CCOCC1)c1ccc(F)cc1` [p-fluoro-N-(2-morpholinoethyl)-benzamide] came in with an LD50 of 1250 to 2500 mg/kg. For the same compound, the “ED50 (MAO inhibiting activity)” value in series [2] came to 11 µmol/kg.
On to `O=C(NCCN1CCOCC1)c1ccc(Cl)cc1[N+](=O)[O-]` [4-chloro-N-(2-morpholinoethyl)-2-nitrobenzamide], for which, in series [2], the “ED50 (MAO inhibiting activity)” value worked out at 2 µmol/kg.
`CC(C)(C)c1ccc(C(=O)NCCN2CCOCC2)cc1` [p-t-butyl-N-(2-morpholinoethyl)-benzamide] displayed an LD50 in series [1] of 1250 to 2500 mg/kg. Besides, in series [2], the “ED50 (MAO inhibiting activity)” value turned out to be 16 µmol/kg.
In series [1], `O=C(NCCN1CCOCC1)c1ccc(I)cc1` [p-iodo-N-(2-morpholinoethyl)-benzamide] gave an LD50 of 1250 to 2500 mg/kg. Further, the “ED50 (MAO inhibiting activity)” value in series [2] was 4 µmol/kg.
In series [1], `O=C(NCCN1CCOCC1)c1ccc(Cl)cc1Cl` [2,4-dichloro-N-(2-morpholinoethyl)-benzamide] yielded an LD50 of 1250 to 2500 mg/kg. Moreover, the “ED50 (MAO inhibiting activity)” value in series [2] came to 13 µmol/kg.
For the compound `O=C(NCCN1CCOCC1)c1ccc(Br)cc1` [p-bromo-N-(2-morpholinoethyl)-benzamide], in series [1], the LD50 is 1250 to 2500 mg/kg. Also, the “ED50 (MAO inhibiting activity)” value in series [2] turned out to be 6 µmol/kg.

Values taken from patent publication US4210754A, “Morpholino containing benzamides” (Hoffmann-La Roche Inc., priority 1978, dated 1980).
